Test results taken from patent US20260028423A1, “PREDICTION OF AN INCREASE OF DPP3 IN A PATIENT WITH SEPTIC SHOCK” (4TEEN4 Pharmaceuticals GmbH, priority 2022, published 2026).
Where two headings read alike, the source gives them in different places.

Columns and labels:
[1] = system: patients with septic shock; assay: AdrenOSS-2 phase II trial in patients with septic shock and elevated adrenomedullin: mortality vs placebo; format: in vivo, human
[2] = system: patients with septic shock; assay: as above; format: in vivo, human; conditions: for HR 28-day all-cause mortality: vs placebo
Procedure: AdrenOSS-2 is a double-blind, placebo-controlled, randomized, multicenter, proof of concept and dose-finding phase II clinical trial to investigate the safety, tolerability and efficacy of the N-terminal ADM antibody named Adrecizumab in patients with septic shock and elevated adrenomedullin (Geven et al. BMJ Open 2019; 9:e024475). In total, 301 patients with septic shock and bio-ADM concentration >[…] were randomized (2:1:1) to treatment with a single intravenous infusion over approximately 1 hour with either placebo (n=152), adrecizumab […]/kg (n=72) or adrecizumab […]/kg (n=77). All-cause mortality within 28 (90) days after inclusion was 25.8% (34.8%). Mean age was 68.4 years and 61% were male. For the per protocol analysis, n=294 patients remained eligible, and 14-day all-cause mortality rate was 18.5%.
To validate the findings from example 9 and for proof of concept, the different lower thresholds for DPP3 at baseline (day 1) were assessed for efficacy of the anti-ADM antibody (Adrecizumab) therapy in the septic shock population with high bio-ADM from the AdrenOSS-2 study cohort and patients with a DPP3 plasma value above the different lower thresholds were excluded from the analyses. Efficacy of the anti-ADM antibody therapy was specifically assessed to what concerns the mortality endpoint in the placebo and treated arms.
The DPP3 plasma levels in septic shock with high bio-ADM (above […]) patients (n=298) at baseline and in the following 144 h were statistically analysed with the aim of determining a DPP3 threshold at baseline to assess anti-ADM antibody therapy efficacy. Patients above the respective DPP3 plasma thresholds were excluded from the analyses. Different DPP3 plasma concentration thresholds have been applied for 28-day all-cause mortality evaluation using Kaplan-Meier plots comparing anti-ADM antibody therapy vs. placebo. The log-rank test was chosen for showing differences in mortality rates among treatment groups. Hazard ratios (HR) were calculated for each DPP3 plasma concentration threshold to estimate the reduction in mortality risk imposed by anti-ADM antibody therapy relative to placebo.

endotoxemic rats = conditions: pre-treatment; cited from earlier work
[3] = system: mice with CLP-induced sepsis; conditions: pre-treatment, cited from earlier work
[4] = phase I study; cited from earlier work

Adrecizumab: humanized N-terminal anti-ADM antibody; heavy chain SEQ ID NO: 32, light chain SEQ ID NO: 33
HR 14-day mortality ([1]; DPP3 <50 ng/mL on admission): 0.426 | HR 14-day mortality ([1]; DPP3 <40): 0.385 | HR 14-day mortality ([1]; DPP3 <60): 0.449 | HR 14-day mortality ([1]; DPP3 <70): 0.546 | HR 14-day mortality ([1]; DPP3 >50 ng/mL): 1.69 | HR 14-day mortality ([1]; DPP3 >40): 1.35 | HR 14-day mortality ([1]; DPP3 >60): 1.62 | HR 14-day mortality ([1]; DPP3 >70): 1.24 | HR 28-day all-cause mortality ([1]; baseline DPP3 threshold 50 ng/ml): 0.606 | 28-day all-cause mortality compared to the placebo arm ([2]; DPP3 below 30 ng/ml (n=195)): significantly reduced | 28-day all-cause mortality compared to the placebo arm ([2]; DPP3 below 50 ng/ml): lower than the placebo arm | 28-day all-cause mortality compared to the placebo arm ([2]; DPP3 below 50 ng/ml at baseline and continuously low (<50 ng/ml) during the next 144 h): significantly lower | HR 28-day all-cause mortality ([2]; baseline DPP3 threshold 22 ng/ml): 0.258 | HR 28-day all-cause mortality ([2]; baseline DPP3 threshold 30 ng/ml): 0.309 | HR 28-day all-cause mortality ([2]; baseline DPP3 threshold 40 ng/ml): 0.568 | renal vascular leakage (endotoxemic rats): attenuated | 7-day survival ([3]; repeated dose administration, control 0%): 40% | 7-day survival ([3]; single dose, control 10%): 50% | renal vascular leakage [3]: attenuated | serious adverse events [4]: no serious adverse events were observed
